Data set [1] concerns BAE cells.
Data set [2] relates to BAE cells. The experiment in a line: cells. As to conditions: Bos taurus, Endothelial cell, 24 h, read-out: IC50 for viability.
A further data set has as its system Human T cells (A3.01). The experiment in a line: Membrane permeability, tritiated GSAO in cytosol. The conditions noted are these: 50 μM GSAO. The class given is in vitro ADME. The method, then: (§1) Human T cells (A3.01) or adherent BAE cells were incubated with complete medium containing 50 μM GSAO and ˜100,000 counts per minute of tritiated GSAO for 1 or 72 hours. Tritiated GSAO was prepared exactly as described for GSAO except that glycine-2-^3H-glutathione (NEN, Boston, Mass.) was used in place of cold glutathione. The cells were washed and lysed by two cycles of freezing and thawing. The cytosolic constituents were collected by differential centrifugation (Ausbel et al., 2000) and the tritiated GSAO was measured. Only 0.5% of the total tritiated GSAO was found in the T cell cytosol and 0.04% in the BAE cytosol after 1 hour. Moreover, only 4.5% of the GSAO penetrated the T cell membrane after 72 hours of culture.

A short description of data set [3]: Binding of GSAO to dithiols, loss of thiols in DTNB assay. Here is the method:
FIG. 11. Titration of DMP or cysteine with GSAO. DMP (15 μM corresponding to 30 μM thiols) is or cysteine (28 μM) was incubated with GSAO (0–50 μM) for 10 minutes. DTNB (950 μM) was then added and the reactions incubated for a further 10 minutes. The concentration of thiol in the reactions was determined from the absorbance of the TNB dianion at 412 nm.
FIG. 12. Interaction of GSAO with synthetic. Deptide and protein dithiols. DMP (A) (15 μM), 6,8-thioctic acid (B) ([…]), dithiothreitol (C) (8.5 μM), TrpCysGlyProCysLys (D) (4.6 μM), TrpCysGlyHisCysLys (E) (5.5 μM) or thioredoxin (F) (4.1 μM corresponding to 20.6 μM thiols) was incubated with GSAO (0–56 μM) for 10 minutes. […] The concentration of thiol in the reactions was determined from the absorbance of the TNB dianion at 412 nm. […]
A stock solution of DMP (5 μL, 50 μmol) was dissolved in DMSO (995 μL), giving a concentration of 50 mM DMP. […] The activity of the arsenical could then be determined by the titration of varying amounts of arsenical against the DMP working solution (10 μL) in a 96-well microbitre plate, with the total volume made up to 195 μL by addition of buffer. […] The absorbance at 412 nm due to the formation of the TNB dianion was measured using a Molecular Devices Thermomax Plus (Palo Alto, Calif.) microplate reader. […]
Binding of GSAO to dithiols was measured from loss of thiols using the DTNB assay described above. […]

The target of data set [4] is T1, TrpCysGlyHisCysLys (PDI active site hexapeptide) (Homo sapiens, UniProt P07237).
T1 construct: purchased Auspep, Parkville, Australia; host or cells: synthetic peptide
The data set is described as above. The method, then: (§2) FIG. 12. Interaction of GSAO with synthetic. Deptide and protein dithiols. DMP (A) (15 μM), 6,8-thioctic acid (B) ([…]), dithiothreitol (C) (8.5 μM), TrpCysGlyProCysLys (D) (4.6 μM), TrpCysGlyHisCysLys (E) (5.5 μM) or thioredoxin (F) (4.1 μM corresponding to 20.6 μM thiols) was incubated with GSAO (0–56 μM) for 10 minutes. DTNB (950 μM) was then added and the reactions incubated for a further 10 minutes. The concentration of thiol in the reactions was determined from the absorbance of the TNB dianion at 412 nm. The solid lines represent the best non-linear least squares fit of the data to Equation 1 (A to E) or Equation 2 (F) and have been drawn using the parameter estimates in Table 1. The dotted line in part A represents a simulated titration assuming an infinite affinity of GSAO for the dithiol. GSAO bound to both synthetic, peptide and protein dithiols with dissociation constants in the range 130 nM to 1.4 μM.
(§3) A stock solution of DMP (5 μL, 50 μmol) was dissolved in DMSO (995 μL), giving a concentration of 50 mM DMP. A second dilution of the 50 mM DMP stock solution (10 μL) in pH 7.0 buffer (0.1 M HEPES, 0.3 M NaCl, 1 mM EDTA) (990 μL) gave a working solution of 500 ? M DMP. The activity of the arsenical could then be determined by the titration of varying amounts of arsenical against the DMP working solution (10 μL) in a 96-well microbitre plate, with the total volume made up to 195 μL by addition of buffer. After a 10 minute incubation at room temperature, during which time the solutions were agitated on a plate shaker, 5 μL of a 37.9 mM stock solution of DTNB (15 mg) in DMSO (1 mL) was added, and the plate incubated with shaking for another 10 minutes. The absorbance at 412 nm due to the formation of the TNB dianion was measured using a Molecular Devices Thermomax Plus (Palo Alto, Calif.) microplate reader. The extinction coefficient for the TNB dianion at pH 7.0 is 14,150 M^−1cm^−1 at 412 nm (Riddles et al., 1983).
(§4) Recombinant human thioredoxin produced in E. coli was from American Diagnostica, Greenwich, Conn. The hexapeptides, TrpCysGlyProCysLys (SEQ ID NO: 1) and TrpCysGiyHisCysLys (SEQ ID NO: 2), were from Auspep, Parkville, Australia.
(§5) Binding of GSAO to dithiols was measured from loss of thiols using the DTNB assay described above. The dissociation constant, Kd, for GSAO binding to dithiols was determined by incubating increasing concentrations of GSAO, I, with a fixed dithiol concentration, [S]T, and measuring the remaining dithiol using DTNB. Note that the concentration of dithiol equals half the TNB concentration. The concentration of dithiol.GSAO complex, SI, as a function of the total GSAO concentration, [I]T, is described by Equation 1 (Hogg and Jackson, 1990), [SI]=0.5.{([S]T+x.[I]T+Kd)−(([S]T+x.[I]T+Kd)^2−4.[S]T.x.[I]T)^0.5} (1) […]

Data set [5] deals with T2, TrpCysGlyProCysLys (thioredoxin active site hexapeptide) (Homo sapiens, UniProt P10599).
T2 construct: purchased Auspep, Parkville, Australia; host or cells: synthetic peptide
The data set is described as above. The method, then: as §2, §3, §4, §5

For a further data set, the system named is adherent BAE cells. In words: Membrane permeability, tritiated GSAO in cytosol. In kind it is in vitro ADME, bovine. As to conditions: 50 μM GSAO, 1 hour. Here is the method:
as §1

The mark [6] stands for this setting: Dissociation Constant, ring size 15, errors are 1 SD.
[7] abbreviates: dissociation constant, approximate value.

As to `N[C@@H](CCC(=O)N[C@@H](CSCC(=O)Nc1ccc([As](=O)(O)O)cc1)C(=O)NCC(=O)O)C(=O)O` [GSAA, 4-(N-(S-glutathionylacetyl)amino)phenylarsonic acid, reference compound], the “effect on BAE viability” value in the data set on BAE cells [1] is reported as “no significant effect”.

The IC50 is the concentration that gives 50% inhibition. As for `NC(CCC(=O)NC(CSCC(=O)Nc1ccc([As]=O)cc1)C(=O)NCC(=O)O)C(=O)O` (centres unmarked) [GSAO, 4-(N-(S-glutathionylacetyl)amino)-phenylarsenoxide], the IC50 in the data set with BAE cells [2] was ~100000 nM. Also, the “total tritiated GSAO found in the cytosol” value came to 0.5% in the data set with Human T cells (A3.01) (1 hour) and 0.04% in the data set with adherent BAE cells. Also, the “GSAO that penetrated the T cell membrane” value in the data set on Human T cells (A3.01) (72 hours of culture) worked out at 4.5%. Also, the “interaction of GSAO with DMP in DTNB titration” value in data set [3] (DMP 15 μM, GSAO 0–50 μM, 10 minutes) is “bound to DMP and prevented interaction of the dithiol with DTNB”. The Kd in data set [3] (ring size 5, errors are 1 SD, read-out: Dissociation Constant) was 130 nM; in data set [4] (setting [6]) it was 870 ± 270 nM; in data set [4] (setting [7]), ~1000 nM; in data set [5] (setting [6]), 1420 nM; in data set [5] (setting [7]), ~1000 nM.

Source of the values: patent US7186695B2 (priority 2001, dated 2007).
